Experimental data: patent US9018234B2, “Fluoro-substituted 2-aryl-3,5-dicyano-4-indazolyl-6-methyl-1,4-dihydropyridines and uses thereof” (Bayer Intellectual Property GmbH, priority 2009, dated 2015)

Assay: Caco-2 permeability assay
Type: in vitro ADME
Conditions: human, apical to basolateral, 2 μM test concentration, 2 h at 37° C., read-out: Caco-2 permeability PappA-B
Excerpt: Caco-2 Permeability Assay:
The in vitro permeation of a test compound across a Caco-2 cell monolayer is a well-established assay system to predict the permeability from the gastro-intestinal tract [cf. P. Artursson and J. Karlsson: Correlation between oral drug absorption in humans and apparent drug permeability coefficients in human intestinal epithelial (Caco-2) cells, Biochem. Biophys. 175 (3), 880-885 (1991)]. The permeability of the compounds of the present invention in such Caco-2 cells was determined as described below:
Human Caco-2 cells (ACC No. 169, DSMZ, German Collection of Microorganisms and Cell Cultures, Braunschweig, Germany) are seeded on 24-well insert plates and are allowed to grow for 14-16 days. For permeability studies, the test compounds are dissolved in DMSO and diluted to the final test concentration of 2 μM with transport buffer [Hanks' Buffered Salt Solution, Gibco/Invitrogen, further supplemented with glucose (final concentration 19.9 mM) and HEPES (final concentration 9.8 mM)]. For determination of the apical to basolateral permeability (PappA-B), the test compound solution is added to the apical side of the cell monolayer and transport buffer to the basolateral side of the monolayer; for determination of the basolateral to apical permeability (PappB-A), the test compound solution is added to the basolateral side of the cell monolayer and transport buffer to the apical side of the monolayer. Samples are taken from the donor compartment at the beginning of the experiment to confirm mass balance. After an incubation of 2 h at 37° C., samples are taken from both compartments. Samples are analyzed by LC-MS/MS, and the apparent permeability coefficients are calculated. Lucifer Yellow permeability is assayed for each cell monolayer to ensure cell monolayer integrity, and the permeability of Atenolol (low permeability marker) and Sulfasalazine (marker for active excretion) is determined for each batch as quality control.
Representative results from this assay are listed in Table 2 below together with corresponding data for two structural analogs having an unsubstituted methyl group in 6-position of the 1,4-dihydropyridine ring (comparative Examples A and B, see experimental section above; disclosed generically in WO 2008/071451-A1): […]

| SMILES | Papp at 2 h, 2 μM |
| --- | --- |
| Cc1n[nH]c2ccc(C3C(C#N)=C(c4ccc(F)cc4)NC(C(F)F)=C3C#N)cc12 (racemic) [Example 6] | 150 nm/s |
| Cc1n[nH]c2ccc(C3C(C#N)=C(c4ccc(F)cc4)NC(C(F)(F)F)=C3C#N)cc12 (racemic) [Example 13] | 158 nm/s |
| COc1ccc(C2=C(C#N)C(c3ccc4[nH]nc(C)c4c3)C(C#N)=C(C(F)F)N2)cc1 (centres unmarked) [Example 8] | 170 nm/s |

Results, then the compound that gave them:

| Papp at 2 h, 2 μM | SMILES |
| --- | --- |
| 99 nm/s | COc1ccc(C2=C(C#N)C(c3ccc4[nH]nc(C)c4c3)C(C#N)=C(C)N2)cc1 (racemic) [Example A, 2-(4-Methoxyphenyl)-6-methyl-4-(3-methyl-1H-indazol-5-yl)-1,4-dihydropyridine-3,5-dicarbonitrile, reference compound] |
| 62 nm/s | CC1=C(C#N)C(c2ccc3[nH]nc(C)c3c2)C(C#N)=C(c2ccc(F)cc2)N1 (racemic) [Example B, 2-(4-Fluorophenyl)-6-methyl-4-(3-methyl-1H-indazol-5-yl)-1,4-dihydropyridine-3,5-dicarbonitrile, reference compound] |
